Measured values from ChEMBL document CHEMBL5352465, “Small molecules containing chalcogen elements (S, Se, Te) as new warhead to fight neglected tropical diseases” (Eur J Med Chem, 2023).

What was measured:
[1] = tested on: Trypanosoma cruzi; assay: Antitrypanosomal activity against bloodstream Trypanosoma cruzi NINOA strain trypomastigotes assessed as parasite growth inhibition incubated for 24 hrs by microscopic analysis; type: functional
[2] = tested on: Trypanosoma cruzi; assay: Antitrypanosomal activity against bloodstream Trypanosoma cruzi INC-5 strain trypomastigotes assessed as parasite growth inhibition incubated for 24 hrs by microscopic analysis; type: functional
[3] = tested on: Leishmania braziliensis; assay: Antileishmanial activity against Leishmania braziliensis MHOM/BR/75/M2903 strain promastigotes assessed as reduction in cell viability incubated for 48 hrs by MTT assay; type: functional, organism-based; settings: MHOM/BR/75/M2903, 48 h
[4] = tested on: Leishmania infantum; assay: Antileishmanial activity against Leishmania infantum MHOM/BR/74/PP75 strain promastigotes assessed as reduction in cell viability incubated for 48 hrs by MTT assay; type: functional, organism-based; settings: MHOM/BR/74/PP75, 48 h
[5] = Selectivity index, ratio of CC50 for human WI26VA4 cells to ratio of IC50 for antileishmanial activity against Leishmania infantum MHOM/BR/74/PP75 promastigote; type: toxicity; settings: read-out: Ratio CC50/IC50
[6] = Selectivity index, ratio of CC50 for human WI26VA4 cells to ratio of IC50 for antileishmanial activity against Leishmania braziliensis MHOM/BR/75/M2903 promastigote; type: toxicity; settings: read-out: Ratio CC50/IC50
[7] = Selectivity index, ratio of CC50 for cytotoxicity against mouse RAW264.7 cells to IC50 for antitrypanosomal activity against Trypanosoma cruzi epimastigote; type: toxicity, cell-based; settings: read-out: Ratio CC50/IC50
[8] = tested on: Trypanosoma cruzi; assay: Antitrypanosomal activity against Trypanosoma cruzi epimastigote Dm28c strain assessed as parasite growth inhibition; type: functional, organism-based
[9] = Selectivity index, ratio of CC50 for cytotoxicity against mouse RAW264.7 cells to IC50 for antitrypanosomal activity against Trypanosoma cruzi amastigote; type: toxicity, cell-based; settings: read-out: Ratio CC50/IC50
[10] = tested on: Trypanosoma cruzi; assay: Antitrypanosomal activity against Trypanosoma cruzi amastigote assessed as parasite growth inhibition; type: functional, organism-based
[11] = tested on: Trypanosoma cruzi; assay: Antitrypanosomal activity against Trypanosoma cruzi arequipa strain amastigotes assessed as parasite growth inhibition incubated for 48 hrs by resazurin staining based analysis; type: functional, organism-based
[12] = tested on: Trypanosoma cruzi; assay: Antitrypanosomal activity against Trypanosoma cruzi arequipa strain trypomastigotes assessed as parasite growth inhibition incubated for 48 hrs by resazurin staining based analysis; type: functional, organism-based
[13] = tested on: Trypanosoma cruzi; assay: Antitrypanosomal activity against Trypanosoma cruzi arequipa strain epimastigotes assessed as parasite growth inhibition incubated for 48 hrs by resazurin staining based analysis; type: functional, organism-based
[14] = tested on: Leishmania infantum; assay: Antileishmanial activity against Leishmania infantum amastigotes assessed as inhibition of parasite growth; type: functional, organism-based
[15] = Selectivity index, ratio of CC50 for mouse J774.A1 cells to ratio of IC50 for antitrypanosomal activity against bloodstream Trypanosoma cruzi NINOA strain trypomastigotes; type: toxicity; settings: read-out: Ratio CC50/IC50
[16] = Selectivity index, ratio of CC50 for mouse J774.A1 cells to ratio of IC50 for antitrypanosomal activity against bloodstream Trypanosoma cruzi INC-5 strain trypomastigotes; type: toxicity; settings: read-out: Ratio CC50/IC50
[17] = tested on: Trypanosoma cruzi; assay: Antitrypanosomal activity against bloodstream Trypanosoma cruzi Y strain trypomastigotes assessed as parasite growth inhibition incubated for 24 hrs by light microscopic analysis; type: functional, organism-based
[18] = tested on: Leishmania amazonensis; assay: Antileishmanial activity against Leishmania amazonensis promastigotes assessed as inhibition of parasite growth; type: functional, organism-based
[19] = tested on: Trypanosoma cruzi; assay: Antitrypanosomal activity against Trypanosoma cruzi epimastigote assessed as parasite growth inhibition; type: functional, organism-based
[20] = tested on: Leishmania major; assay: Antileishmanial activity against Leishmania major promastigote assessed as inhibition of parasite growth; type: functional, organism-based

Fc1cccc(CSc2nc3ccccc3s2)c1
LC50 [1]: > 350 µM
LC50 [2]: > 350 µM

O=C1NC(=O)/C(=C/c2cc(Cl)cc(Cl)c2Cl)S1
IC50 [3]: 46.4 µM
IC50 [4]: 30.4 µM
selectivity ratio [5]: 0.96
selectivity ratio [6]: 0.63

NS(=O)(=O)c1ccc(CCNC(=O)Cc2ccc(Br)cc2)cc1
selectivity ratio [7]: 0.44
IC50 [8]: 7.36 µM
selectivity ratio [9]: 0.44
IC50 [10]: 3.51 µM

O=S(=O)(Nc1ccc([Se][Se]c2ccc(NS(=O)(=O)c3ccc(C(F)(F)F)cc3)cc2)cc1)c1ccc(C(F)(F)F)cc1
IC50 [11]: 2.3 µM
IC50 [12]: 2 µM
IC50 [13]: 2.7 µM

O=C1NC(=O)/C(=C/c2ccc(Cl)c(Cl)c2)S1
IC50 [3]: 65.7 µM
IC50 [4]: 23.4 µM
selectivity ratio [5]: 1.85
selectivity ratio [6]: 0.66

O=C(Nc1ccc([Se][Se]c2ccc(NC(=O)c3cccs3)cc2)cc1)c1cccs1
IC50 [11]: 15.4 µM
IC50 [12]: 12.7 µM

CSc1ccc(C[Se][Se]Cc2ccc(SC)cc2)cc1
IC50 [11]: 1.2 µM
IC50 [12]: 1.7 µM
IC50 [13]: 1.8 µM

NS(=O)(=O)c1ccc(NC(=O)Cc2ccc(Cl)cc2)c(F)c1
selectivity ratio [7]: 2
IC50 [8]: 3.54 µM
selectivity ratio [9]: 3
IC50 [10]: 2.83 µM

CCOP(=S)(Nc1ccc([Se][Se]c2ccc(NP(=S)(OCC)OCC)cc2)cc1)OCC
IC50 [14]: 0.79 µM

c1ccc(CSc2nc3ccccc3s2)cc1
LC50 [1]: 123 µM
selectivity ratio [15]: > 7.29
LC50 [2]: 336 µM
selectivity ratio [16]: > 2.68

Fc1cccc(F)c1CSc1nc2ccccc2s1
LC50 [1]: 110 µM
selectivity ratio [15]: 4.48
LC50 [2]: 260 µM
selectivity ratio [16]: 1.91

O=P(Nc1ccc([Se][Se]c2ccc(NP(=O)(Oc3ccccc3)Oc3ccccc3)cc2)cc1)(Oc1ccccc1)Oc1ccccc1
IC50 [14]: 14.3 µM

CC1(C)OC2=C(CC1[Se]c1cccc3ccccc13)C(=O)C(=O)c1ccccc12 (stereo not given)
IC50 [17]: 57 µM

COP(=O)(Nc1ccc([Se][Se]c2ccc(NP(=O)(OC)OC)cc2)cc1)OC
IC50 [14]: 0.33 µM

O=C1C(=O)c2ccccc2C2=C1CC(C[Se]c1cccc(C(F)(F)F)c1)O2 (stereo not given)
IC50 [17]: 75.5 µM

O=C1c2ccccc2C(=O)c2cc(C[Se][Se]Cc3ccc4c(c3)C(=O)c3ccccc3C4=O)ccc21
IC50 [14]: 0.68 µM

Fc1ccc(CSc2nc3ccccc3s2)cc1
LC50 [1]: > 350 µM
LC50 [2]: > 350 µM

COc1ccc([Te]Cc2ccc(S(N)(=O)=O)cc2)cc1
IC50 [14]: 6.14 µM

NS(=O)(=O)c1ccc(C[Te]c2ccc3ccccc3c2)cc1
IC50 [14]: 5.83 µM

Cc1ccc(S(=O)(=O)Nc2ccc([Se][Se]c3ccc(NS(=O)(=O)c4ccc(C)cc4)cc3)cc2)cc1
IC50 [11]: 4.2 µM
IC50 [12]: 3.7 µM
IC50 [13]: 5.1 µM

CC1=CC[C@@H](C(C)(C)NC(=S)N/N=C/c2ccc([N+](=O)[O-])cc2)CC1
IC50 [18]: 11.2 µM

NC(=S)N/C=N/c1c(C(F)(F)F)nn(-c2ccccc2)c1-c1ccc([N+](=O)[O-])cc1
IC50 [19]: 45.7 µM

Cc1ccc([Te]Cc2ncc(-c3ccc(S(N)(=O)=O)cc3)[se]2)cc1
IC50 [14]: 0.34 µM

COc1ccc(CC(=O)Nc2nnc(S(N)(=O)=O)s2)cc1
selectivity ratio [7]: 1
IC50 [8]: 6.69 µM
selectivity ratio [9]: 1
IC50 [10]: 3.27 µM

Fc1c(F)c(F)c(CSc2nc3ccccc3s2)c(F)c1F
LC50 [1]: 147 µM
selectivity ratio [15]: 1.69
LC50 [2]: 185 µM
selectivity ratio [16]: 1.34

O=C(Nc1ccc([Se][Se]c2ccc(NC(=O)c3ccco3)cc2)cc1)c1ccco1
IC50 [11]: 3.2 µM
IC50 [12]: 1.8 µM

FC(F)(F)c1ccc(C[Se][Se]Cc2ccc(C(F)(F)F)cc2)cc1
IC50 [11]: 0.8 µM
IC50 [12]: 1.5 µM
IC50 [13]: 1.9 µM

NS(=O)(=O)c1nnc(NC(=O)Cc2ccccc2Br)s1
selectivity ratio [7]: 2
IC50 [8]: 3.98 µM
selectivity ratio [9]: 5
IC50 [10]: 2.15 µM

N#Cc1ccc(C[Se][Se]Cc2ccc(C#N)cc2)cc1
IC50 [11]: 0.5 µM
IC50 [12]: 0.9 µM
IC50 [13]: 1.3 µM

COc1ccc(-c2c(/N=C/NC(N)=S)c(C(F)(F)F)nn2-c2ccccc2)cc1
IC50 [19]: 29.7 µM

NS(=O)(=O)c1nnc(NC(=O)Cc2ccc(Cl)cc2)s1
selectivity ratio [7]: 1
IC50 [8]: 6.24 µM
selectivity ratio [9]: 1
IC50 [10]: 3.47 µM

CC1(C)OC2=C(CC1[Se]c1cccs1)C(=O)C(=O)c1ccccc12 (stereo not given)
IC50 [17]: 63.3 µM

O=C1NC(=O)/C(=C/c2ccc(Cl)cc2Cl)S1
IC50 [3]: 44.2 µM
IC50 [4]: 40.9 µM
selectivity ratio [5]: 0.82
selectivity ratio [6]: 0.76

O=C1NC(=O)/C(=C/c2cc(Cl)cc(Br)c2O)S1
IC50 [3]: 48.2 µM
IC50 [4]: 35.9 µM
selectivity ratio [5]: 0.74
selectivity ratio [6]: 0.55

NS(=O)(=O)c1ccc(-c2cnc(C[Se]c3ccccc3)[se]2)cc1
IC50 [14]: 4.11 µM

O=C(Nc1ccc([Se][Se]c2ccc(NC(=O)c3ccc([N+](=O)[O-])cc3)cc2)cc1)c1ccc([N+](=O)[O-])cc1
IC50 [11]: 49.3 µM
IC50 [12]: 35.8 µM

NS(=O)(=O)c1ccc(NC(=[Se])NC(=O)c2ccccc2)cc1
IC50 [14]: 5.23 µM

N#C[Se]Cc1cccc(C#N)c1
IC50 [11]: 0.8 µM
IC50 [12]: 0.9 µM
IC50 [13]: 1 µM

NC(=S)N/C=N/c1c(C(F)(F)F)nn(-c2ccccc2)c1-c1ccc(Br)cc1
IC50 [19]: 30.3 µM

Oc1ccc(-c2nnc(-c3ccc4ncccc4c3)s2)c(O)c1
IC50 [20]: 0.7 µM

NC(=S)N/C=N/c1c(C(F)(F)F)nn(-c2ccccc2)c1-c1ccc(Cl)cc1
IC50 [19]: 49.2 µM

NS(=O)(=O)c1ccc(NC(=[Se])NC(=O)c2ccc3c(c2)OCO3)cc1
IC50 [14]: 5.28 µM

c1ccc2c(c1)nnn2C[Se][Se]Cn1nnc2ccccc21
IC50 [14]: 0.45 µM

NS(=O)(=O)c1ccc(NC(=O)Cc2ccccc2Br)c(F)c1
selectivity ratio [7]: 1
IC50 [8]: 5.66 µM
selectivity ratio [9]: 3
IC50 [10]: 2.27 µM

O=C(Nc1ccc([Se][Se]c2ccc(NC(=O)c3ccc(C(F)(F)F)cc3)cc2)cc1)c1ccc(C(F)(F)F)cc1
IC50 [11]: 5.4 µM
IC50 [12]: 2.4 µM

O=C1C(=O)c2ccccc2C2=C1CC(C[Se]c1ccc(Cl)cc1)O2 (stereo not given)
IC50 [17]: 58.3 µM

N#C[Se]Cc1ccccc1[N+](=O)[O-]
IC50 [11]: 0.5 µM
IC50 [12]: 1.3 µM
IC50 [13]: 0.9 µM

Clc1ccc(CSc2nc3ccccc3s2)cc1
LC50 [1]: > 350 µM
LC50 [2]: 263 µM
selectivity ratio [16]: > 3.42

NC(=S)N/C=N/c1c(C(F)(F)F)nn(-c2ccccc2)c1-c1ccccc1
IC50 [19]: 83.1 µM

CC1=CC[C@@H](C(C)(C)NC(=S)NN)CC1
IC50 [18]: 3 µM

COc1ccc(CSc2nc3ccccc3s2)cc1
LC50 [1]: 308 µM
selectivity ratio [15]: > 2.92
LC50 [2]: 276 µM
selectivity ratio [16]: > 3.26

NC(=S)N/C=N/c1c(C(F)(F)F)nn(-c2ccccc2)c1-c1ccc(F)cc1
IC50 [19]: 69.3 µM

Oc1cccc(-c2nnc(-c3ccc4ncccc4c3)s2)c1O
IC50 [20]: 0.04 µM

Cc1ccc(C[Se]C#N)cc1
IC50 [11]: 3.1 µM
IC50 [12]: 4.5 µM
IC50 [13]: 3 µM

O=C1NC(=O)/C(=C/c2ccccc2Cl)S1
IC50 [3]: 71 µM
IC50 [4]: 68.8 µM
selectivity ratio [5]: 0.89
selectivity ratio [6]: 0.86

CCOP(=O)(Nc1ccc([Se][Se]c2ccc(NP(=O)(OCC)OCC)cc2)cc1)OCC
IC50 [14]: 0.17 µM
